How the values were obtained:
Format in all cases: functional
Conditions in all cases: 120 h
Tetranychus urticae [1] = assay: Acaricidal activity against Tetranychus urticae (two-spotted spider mite) in kidney bean leaf assessed as mortality at 3.1 ppm at 25 degC measured after 5 days
Tetranychus urticae [2] = assay: Acaricidal activity against Tetranychus urticae (two-spotted spider mite) in kidney bean leaf assessed as mortality at 500 ppm at 25 degC measured after 5 days
Tetranychus urticae [3] = assay: Acaricidal activity against Tetranychus urticae (two-spotted spider mite) in kidney bean leaf assessed as mortality at 200 ppm at 25 degC measured after 5 days
Tetranychus urticae [4] = assay: Acaricidal activity against Tetranychus urticae (two-spotted spider mite) in kidney bean leaf assessed as mortality at 50 ppm at 25 degC measured after 5 days
Tetranychus urticae [5] = assay: Acaricidal activity against Tetranychus urticae (two-spotted spider mite) in kidney bean leaf assessed as mortality at 12.5 ppm at 25 degC measured after 5 days

Row | SMILES | mortality at 3.1 ppm (Tetranychus urticae [1]) [%] | mortality at 500 ppm (Tetranychus urticae [2]) [%] | mortality at 200 ppm (Tetranychus urticae [3]) [%] | mortality at 50 ppm (Tetranychus urticae [4]) [%] | mortality at 12.5 ppm (Tetranychus urticae [5]) [%]
1 | Cc1cc(C(=O)NCc2ccc(C(C)(C)C)cc2)n(C)n1 | 0 | 100 | 100 | 100 | 30
2 | Cc1ncsc1C(=O)NCc1ccc(C(C)(C)C)cc1 | 0 | 30 | 0 | 0 | 0
3 | Cc1nc(C)c(C(=O)NCc2ccc(C(C)(C)C)cc2)s1 | 0 | 100 | 100 | 100 | 0
4 | CCc1cc(C(=O)NCc2ccc(C(C)(C)C)cc2)nn1C | 0 | 0 | 0 | 0 | 0
5 | CCc1nc(C)c(C(=O)N(C)Cc2ccc(C(C)(C)C)cc2)s1 | 0 | 100 | 100 | 100 | 30
6 | CCn1ncc(C(=O)NCc2ccc(C(C)(C)C)cc2)c1C | 0 | 0 | 0 | 0 | 0
7 | CCc1cc(C(=O)NCc2ccc(C(C)(C)C)cc2)n(C)n1 | 0 | 100 | 100 | 100 | 100
8 | Cc1nn(C)cc1C(=O)NCc1ccc(C(C)(C)C)cc1 | 0 | 100 | 80 | 0 | 0
9 | CCn1cc(C(=O)NCc2ccc(C(C)(C)C)cc2)c(C)n1 | 0 | 100 | 100 | 100 | 30
10 | CCn1nc(C)cc1C(=O)NCc1ccc(C(C)(C)C)cc1 | 0 | 0 | 0 | 0 | 0

From ChEMBL document CHEMBL3046446, “Structure and Acaricidal Activity of Pyrazolecarboxamides and Thiazole-5-carboxamides” (1994)
